In patent US11980648B2, “Compositions including ginsenoside 20(S)-Rg3 and methods of using ginsenoside 20(S)-Rg3 to inhibit alpha herpesvirus” (MIDDLE TENNESSEE STATE UNIVERSITY, priority 2020, dated 2024):

Key:
[1] = test system: HSV-1; test: Virus inhibition, HSV-1 on Vero cells (PrestoBlue); assay type: cell-based, herpes simplex virus type 1 (MacIntyre strain)
Experimental: (§1) Viruses and Quantification. Herpes simplex virus type 1 (HSV-1, MacIntyre strain, ATCC, VR-539) or herpes simplex virus type 2 (HSV-2, ATCC, VR-734) were used in these studies. Virus titer was determined by plaque assay. Briefly, following 2 hour-adsorption of various virus dilutions onto a Vero cell monolayer in a 24-well plate, the medium was removed and cells were overlaid with 1.5% carboxymethylcellulose (Sigma Chemical Company, St. Louis, Mo.) and incubated 48 hours at 37° C. with 5% CO2. After incubation, cells were fixed with methanol, stained with Giemsa (Sigma Chemical Company, St. Louis, Mo.) and plaques were counted. Each virus dilution was prepared in quadruplicate.
(§2) Cytotoxicity and Virus Inhibition. All ginsenosides, isomers, and protopanaxadiols were evaluated for toxic effects on Vero cells prior to anti-viral testing. Cells were seeded at 5000 cells/well in a black 96-well plate with clear bottom in a volume of 100 μL and allowed to attach for 24 hours. The P. ginseng compounds were prepared in DMSO at 100 μM and were taken through serial two-fold dilutions to determine the concentration when the rate of cell death was less than 10% compared to control, untreated cells. Each dilution was tested in three wells and all assays were repeated three times. Following a 48 hour-incubation at 37° C. in 5% CO2, 11 μL of PrestoBlue (Invitrogen, Carlsbad, Calif.) was added to each well and the plate was incubated for an additional 30 minutes. PrestoBlue determines cell viability by changing from blue to red as resazurin is reduced to resorufin by viable cells. Following the PrestoBlue incubation, fluorescence was determined by spectrophotometric reading using Soft Max Pro (Molecular Diagnostics, San Jose, Calif., USA).
(§3) For cytotoxicity testing, 4 μL of dilutions of the ginsenosides or protopanaxadiols were added to 396 μL of medium 199 and 100 μL of this mixture was added to each of three wells. For anti-viral testing, 4 μL of the non-toxic reagent and 4 μL of HSV-1 or HSV-2 diluted to an MOI of 0.1 were added to 392 μL of medium 199 and 100 μL of this mixture was added to each of three wells. Virus inhibition was determined by comparing the cell death of reagent-exposed cells with cell death of control cells only receiving virus. The 50% inhibitory concentration (IC50) was determined through a series of two-fold dilutions and calculation by linear regression analysis.

[2] = test system: HSV-2; test: Virus inhibition, HSV-2 on Vero cells (PrestoBlue); assay type: cell-based, herpes simplex virus type 2
Experimental: as §1, §2, §3

[3] = test system: HSV-1; test: Plaque reduction of HSV-1 on Vero cell monolayer; assay type: cell-based, herpes simplex virus type 1 (MacIntyre strain); conditions: valacyclovir 16 μM, 20(S)-Rg3 50 μM, about 50 PFU/well, 48 hours; for Number of Plaques: ± standard error
Experimental: as §1
The plaque assay procedure also was used to evaluate the percent plaque reduction; the only procedural change was that a constant virus concentration was used (50 plaque forming units (PFU)/well). Plaque reduction was measured by comparing the control (virus only), with valacyclovir (16 μM) with virus or 20(S)-Rg3 (50 μM) with virus. Sample wells were evaluated in quadruplicate. Following the 2 hour-virus adsorption, the methylcellulose-medium containing the same concentrations of valacyclovir or Rg3 was added to the appropriate wells. After 48 hours, plaques were fixed, stained and counted.

[4] = test system: HSV-1; test: Time studies of HSV-1 inhibition (PrestoBlue); assay type: cell-based, herpes simplex virus type 1; conditions: Rg3 50 μM
Experimental: Time Studies. For virus inhibition studies described above, reagent 20(S)-Rg3 and virus were added to cells simultaneously. To evaluate the potential mode of action of Rg3, various combinations of valacyclovir, Rg3 and HSV-1 were tested at different time periods. The following combinations were evaluated at both one hour and four hours: • Virus applied to cells first (for one hour or four hours), followed by addition of valacyclovir, Rg3 or both valacyclovir and Rg3 to the cells; • Valacyclovir or Rg3 or both valacyclovir and Rg3 applied to cells first (for one or four hours), followed by virus; • Valacyclovir or Rg3 incubated together with virus first for one or four hours then added to cells.
All procedures described for evaluation of virus inhibition were followed in identical fashion as outlined for the PrestoBlue procedure except valacyclovir was used at a constant concentration of 16 μM and 20(S)-Rg3 at 50 μM.

[5] = test system: HSV-1; test: Mouse susceptibility study, lethal HSV-1 infection; assay type: in vivo, BALB/c mice; conditions: for mortality: BALB/c mice, lethal dose HSV-1
Experimental: Mouse Susceptibility Study. BALB/c mice and the HSV-1, MacIntyre strain, ATCC VR-539, were used to determine the effectiveness of the 20(S)-Rg3 ginsenoside in preventing mortality in mice caused by infection of HSV-1. On day 1 of the study, four groups consisting of four mice each were injected intraperitoneally with 800,000 PFU of HSV-1, MacIntyre strain, ATCC VR-539. Three of the groups were treated daily with 1 mg/kg, 3 mg/kg, or 10 mg/kg intraperitoneal injections of the 20(S)-Rg3 ginsenoside and one group in the study received no treatment.

[6] = test system: normal WI 38 cells; conditions: 120 μM; cited from earlier work

With CC(C)=CCC[C@](C)(O)C1CC[C@]2(C)C1[C@H](O)CC1[C@@]3(C)CC[C@H](O[C@@H]4OC(CO)[C@@H](O)[C@@H](O)C4O[C@@H]4OC(CO)[C@@H](O)[C@@H](O)C4O)C(C)(C)C3CC[C@]12C (stereo partly drawn) [20(S)-Rg3, 20(S)-ginsenoside-Rg3] as the compound, how does the “Percent Inhibition of HSV-1” value ([1]; 50 μM, ± standard error) read?
The value was 82.3 ± 3.5%.

And the “Percent Inhibition of HSV-1” value ([1]; 100 μM, ± standard error)?
Its value is “nearly completely inhibited”.

What about the inhibition at 25 µM ([1]; Human alphaherpesvirus 1, Vero, 25 μM, ± standard error, read-out: Percent Inhibition of HSV-1) of the same compound?
Its inhibition at 25 µM is 11 ± 2.6%.

And the inhibition at 50 µM ([1]; Human alphaherpesvirus 1, Vero, 50 μM, ± standard error, read-out: Percent Inhibition of HSV-1)?
The inhibition at 50 µM was 80%.

And the inhibition at 100 µM ([1]; Human alphaherpesvirus 1, Vero, 100 μM, ± standard error, read-out: Percent Inhibition of HSV-1)?
Its inhibition at 100 µM is 90.3 ± 9.9%.

And the IC50 ([1]; Human alphaherpesvirus 1, Vero, two-fold dilutions, linear regression, read-out: IC50 against HSV-1)?
Its IC50 is roughly 35 µM.

And the “Percent Inhibition of HSV-2” value ([2]; 50 μM, ± standard error)?
Its value is 81.7 ± 10.3%.

And the “Percent Inhibition of HSV-2” value ([2]; 100 μM, ± standard error)?
Its value is “nearly completely inhibited”.

What about the inhibition at 25 µM ([2]; Human alphaherpesvirus 2, Vero, 25 μM, ± standard error, read-out: Percent Inhibition of HSV-2) of the same compound?
Its inhibition at 25 µM is 14.3 ± 3.3%.

And the inhibition at 50 µM ([2]; Human alphaherpesvirus 2, Vero, 50 μM, ± standard error, read-out: Percent Inhibition of HSV-2)?
The inhibition at 50 µM was 80%.

What about the inhibition at 100 µM ([2]; Human alphaherpesvirus 2, Vero, 100 μM, ± standard error, read-out: Percent Inhibition of HSV-2) of the same compound?
The inhibition at 100 µM was 115 ± 6.7%.

What about the IC50 ([2]; Human alphaherpesvirus 2, Vero, two-fold dilutions, linear regression, read-out: IC50 against HSV-2) of the same compound?
Its IC50 is roughly 35 µM.

And the “Percent Reduction of plaques compared to the control” value [3]?
Its value is 97.3%.

What about the “Number of Plaques” value [3] of the same compound?
The value was 1.5 ± 0.3.

And the “Number of Plaques” value ([3]; listed as Rg3)?
Its value is 1.5±0.3.

And the “Percent Inhibition of HSV-1” value ([4]; HSV-1 incubated with compound(s) 4 hours prior to addition to cells, valacyclovir 16 μM)?
Its value is “over 110%”.

What about the “Percent Inhibition of HSV-1” value ([4]; HSV-1 incubated with compound(s) 4 hours prior to addition to cells, valacyclovir 16 μM, listed as Rg3) of the same compound?
The value was 113.7±14.8%.

And the “Percent Inhibition of HSV-1” value ([4]; cells pretreated with compound 4 hours prior to HSV-1 addition)?
The value was 90.1±11.1%.

What about the “Percent Inhibition of HSV-1” value ([4]; virus present on cells 4 hours prior to compound addition) of the same compound?
Its value is 50.7±4.4%.

What about the mortality ([5]; 1 mg/kg daily intraperitoneal) of the same compound?
Its mortality is 0%.

What about the mortality ([5]; 3 mg/kg daily intraperitoneal) of the same compound?
The mortality was 0%.

And the mortality ([5]; 10 mg/kg daily intraperitoneal)?
Its mortality is 0%.

What about the signs of stress ([5]; daily 1 mg/kg, 3 mg/kg or 10 mg/kg groups, duration of the study) of the same compound?
Its signs of stress is “never showed any signs of stress”.

What about the “effect on normal WI 38 cells” value [6] of the same compound?
The value was “no effect”.
